Measured values taken from article PMC6982861, “Synthesis, Structural Characterization, and Biological Activity of New Pyrazolo[4,3-e][1,2,4]triazine Acyclonucleosides” (Molecules, 2020).
Where two headings read alike, the source gives them in different places.

Columns and labels:
[1] = […] kinase assay, P-81 phosphocellulose; type: biochemical, Homo sapiens; conditions: read-out: MTT Assay ^a, IC50 (μM) / K-562
[2] = molecular target: T1, (Homo sapiens, UniProt P00519); experiment: […] kinase assay, P-81 phosphocellulose; type: biochemical
T1 construct: gene ABL1; Abl kinase

[3] = molecular target: T2, CDK2/Cyclin E (Homo sapiens, UniProt P24941); experiment: […] kinase assay, P-81 phosphocellulose; type: biochemical
T2 construct: kinase complex; with G1/S-specific cyclin-E1

[4] = read-out: MTT Assay ^a, IC50 (μM) / K-562

T1 sequence (P00519 whole entry): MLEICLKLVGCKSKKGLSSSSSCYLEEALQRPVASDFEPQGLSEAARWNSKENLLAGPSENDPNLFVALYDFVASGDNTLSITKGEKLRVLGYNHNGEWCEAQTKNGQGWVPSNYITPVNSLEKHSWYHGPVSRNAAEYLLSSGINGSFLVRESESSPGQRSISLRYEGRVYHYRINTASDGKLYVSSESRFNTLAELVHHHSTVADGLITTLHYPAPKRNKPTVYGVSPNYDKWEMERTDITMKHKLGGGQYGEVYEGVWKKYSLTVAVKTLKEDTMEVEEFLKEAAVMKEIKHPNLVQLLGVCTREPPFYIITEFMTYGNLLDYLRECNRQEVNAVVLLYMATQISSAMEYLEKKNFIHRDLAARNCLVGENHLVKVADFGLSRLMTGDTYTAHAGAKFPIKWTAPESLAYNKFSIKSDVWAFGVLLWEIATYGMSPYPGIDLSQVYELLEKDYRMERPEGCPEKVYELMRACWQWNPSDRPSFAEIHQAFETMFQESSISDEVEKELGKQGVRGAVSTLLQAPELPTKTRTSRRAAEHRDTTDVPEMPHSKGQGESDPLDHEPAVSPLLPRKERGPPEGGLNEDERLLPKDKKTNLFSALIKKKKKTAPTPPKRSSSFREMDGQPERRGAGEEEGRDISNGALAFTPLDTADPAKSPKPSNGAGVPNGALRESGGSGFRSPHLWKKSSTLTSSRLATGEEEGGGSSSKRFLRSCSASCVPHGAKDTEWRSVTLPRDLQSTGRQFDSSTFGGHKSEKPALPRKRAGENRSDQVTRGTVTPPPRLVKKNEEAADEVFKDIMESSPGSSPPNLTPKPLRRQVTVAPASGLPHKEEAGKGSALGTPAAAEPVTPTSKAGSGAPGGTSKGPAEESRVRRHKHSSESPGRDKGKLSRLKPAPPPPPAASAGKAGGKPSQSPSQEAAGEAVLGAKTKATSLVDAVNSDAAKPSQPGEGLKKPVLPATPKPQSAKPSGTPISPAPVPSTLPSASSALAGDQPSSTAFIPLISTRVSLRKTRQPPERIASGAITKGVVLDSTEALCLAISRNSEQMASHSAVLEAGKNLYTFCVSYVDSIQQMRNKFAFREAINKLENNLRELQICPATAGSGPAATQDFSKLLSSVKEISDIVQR

SMILES | IC50 [1] [µM] | IC50 [2, 4] [µM] | IC50 [3] [µM] | IC50 ([2]; read-out: IC50 (μM) ^a / CDK2/Cyclin E) [µM]
CSc1nnc2[nH]nc(C)c2n1 [compound 1, 3-methyl-5-methylsulfanyl-1H-pyrazolo[4,3-e][1,2,4]triazine] | > 100 | > 100 |  | 
CSc1nnc2nn(CCO)c(C)c2n1 [compound 3, 2-(2-hydroxyethyl)-3-methyl-5-methylsulfanyl-2H-pyrazolo[4,3-e][1,2,4]triazine] | > 100 | > 100 |  | 
CCOC(=O)C(CCn1nc(C)c2nc(SC)nnc21)C(=O)OCC [compound 7, 1-(ethyl 2-carboethoxybutanoate-4-yl)-3-methyl-5-methylsulfanyl-1H-pyrazolo[4,3-e][1,2,4]triazine] |  |  | > 50 | > 50

Second part, the compound after the results:

IC50 [1] [µM] | IC50 [2, 4] [µM] | IC50 [3] [µM] | IC50 ([2]; read-out: IC50 (μM) ^a / CDK2/Cyclin E) [µM] | SMILES
> 100 | > 100 |  |  | CSc1nnc2c(n1)c(C)nn2CCC(CO)CO [compound 8, 1-[(4-hydroxy-3-hydroxymethyl)butyl]-3-methyl-5-methylsufanyl-1H-pyrazolo[4,3-e][1,2,4]triazine]
> 100 | > 100 |  |  | CSc1nnc2c(n1)c(C)nn2CCO [compound 2, 1-(2-hydroxyethyl)-3-methyl–5-methylsulfanyl-1H-pyrazolo[4,3-e][1,2,4]triazine]
> 100 | > 100 |  |  | CSc1nnc2c(n1)c(C)nn2CC(O)CO (centres unmarked) [compound 4, 1-(2,3-dihydroxypropyl)-3-methyl–5-methylsulfanyl-1H-pyrazolo[4,3-e][1,2,4]triazine]
> 100 | > 100 |  |  | CSc1nnc2c(n1)c(C)nn2CCBr [compound 6, 1-(2-bromoethyl)-3-methyl-5-methylsulfanyl-1H-pyrazolo[4,3-e][1,2,4]triazine]
